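The compound was tested at five concentrations on cells cultured in 96-well plates, with a 48-hour exposure period. GI50: concentration for 50% inhibition of growth.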 Calls of active or inactive are those of the source. Cut-off read from the data, not from the text of the source: active = GI50 up to about 1.1 µM and inactive = higher.
What was measured:
Test in all cases: DTP human tumour cell line panel, 48 h
EKVX = tested on: EKVX
OVCAR-5 = tested on: OVCAR-5
U-251 = tested on: U-251
SF-268 = tested on: SF-268
HT-29 = tested on: HT-29
KM12 = tested on: KM12
HCT-116 = tested on: HCT-116
MDA-MB-231 = tested on: MDA-MB-231
SNB-19 = tested on: SNB-19
SK-MEL-28 = tested on: SK-MEL-28
UO-31 = tested on: UO-31
K562 = tested on: K562
HCC 2998 = tested on: HCC 2998
A549 = tested on: A549
NCI-H23 = tested on: NCI-H23
NCI-H460 = tested on: NCI-H460
SK-MEL-5 = tested on: SK-MEL-5
IGROV-1 = tested on: IGROV-1
HOP-92 = tested on: HOP-92

Row | SMILES | GI50 (EKVX) | GI50 (OVCAR-5) | GI50 (U-251) | GI50 (SF-268) | GI50 (HT-29) | GI50 (KM12) | GI50 (HCT-116) | GI50 (MDA-MB-231) | GI50 (SNB-19) | GI50 (SK-MEL-28) | GI50 (UO-31) | GI50 (K562) | GI50 (HCC 2998) | GI50 (A549) | GI50 (NCI-H23) | GI50 (NCI-H460) | GI50 (SK-MEL-5) | GI50 (IGROV-1) | GI50 (HOP-92)
1 | Cc1cc(=O)oc2c(OS(C)(=O)=O)c(OS(C)(=O)=O)ccc12 | > 100 µM (inactive) | > 100 µM (inactive) | > 100 µM (inactive) | > 100 µM (inactive) | > 100 µM (inactive) | > 100 µM (inactive) | > 100 µM (inactive) | > 100 µM (inactive) | > 100 µM (inactive) | > 100 µM (inactive) | > 100 µM (inactive) | > 100 µM (inactive) | > 100 µM (inactive) | > 100 µM (inactive) | > 100 µM (inactive) | > 100 µM (inactive) | > 100 µM (inactive) | > 100 µM (inactive) | > 100 µM (inactive)
2 | Cc1nnc(Sc2nc(C#N)c(C#N)nc2Sc2nnc(C)s2)s1 | 19.3 µM (inactive) | 17.2 µM (inactive) | 19.8 µM (inactive) | 23.6 µM (inactive) | 4.18 µM (inactive) | 23.8 µM (inactive) | 10.3 µM (inactive) | 15.9 µM (inactive) | 22 µM (inactive) | 10.5 µM (inactive) | 3.35 µM (inactive) | 3.48 µM (inactive) | 20 µM (inactive) | 22.1 µM (inactive) | 17.5 µM (inactive) | 28.6 µM (inactive) | 20.6 µM (inactive) | 7.24 µM (inactive) | 2.14 µM (inactive)
3 | C=CCNC1=C2C[C@@H](C)C[C@@H](OC)[C@@H](OC(=O)CCCN)[C@H](C)/C=C(\C)[C@@H](OC(N)=O)[C@H](OC)/C=C\C=C(/C)C(=O)NC(=CC1=O)C2=O | 18.7 µM (inactive) | 16 µM (inactive) | 9.44 µM (inactive) | 13.2 µM (inactive) | 5.37 µM (inactive) | 4.14 µM (inactive) | 15.7 µM (inactive) | 15 µM (inactive) | 15.8 µM (inactive) | 16.3 µM (inactive) | 18.4 µM (inactive) | 9.16 µM (inactive) | 15.5 µM (inactive) | 15.7 µM (inactive) | 13.9 µM (inactive) | 14.9 µM (inactive) | 8.39 µM (inactive) | 13.5 µM (inactive) | 14.7 µM (inactive)
4 | C/C(=N\NC(=S)N1CCN(c2ccccn2)CC1)c1cccc2cccnc12 | 3.59 µM (inactive) | 4.9 µM (inactive) | 4.12 µM (inactive) | 5.08 µM (inactive) | 3.61 µM (inactive) | 3.9 µM (inactive) | 2.39 µM (inactive) | 4.42 µM (inactive) | 5.78 µM (inactive) | 6.58 µM (inactive) | 4.36 µM (inactive) | 2.46 µM (inactive) | 5.47 µM (inactive) | 5.25 µM (inactive) | 11.5 µM (inactive) | 3.51 µM (inactive) | 2.46 µM (inactive) | 5.79 µM (inactive) | 3.98 µM (inactive)
5 | COc1cccc2c1C(=O)C1=C(C2=O)C(O)CC(C)(C)O1 (stereo unspecified) | 43.1 µM (inactive) | 58.9 µM (inactive) | 32.4 µM (inactive) | 55.5 µM (inactive) | 37.7 µM (inactive) | 27.9 µM (inactive) | 24 µM (inactive) | 25.6 µM (inactive) | 76.7 µM (inactive) | > 100 µM (inactive) | 58.9 µM (inactive) | 21 µM (inactive) | 33.6 µM (inactive) | 32.1 µM (inactive) | 28.5 µM (inactive) | 42.9 µM (inactive) | 14.4 µM (inactive) | 31.6 µM (inactive) | 53.2 µM (inactive)
6 | Cc1c(/C=N/NC(=S)N2CCCCC2)c(=O)n(-c2ccccc2)n1C | 43.8 µM (inactive) | > 100 µM (inactive) | 83.2 µM (inactive) | 29.5 µM (inactive) | 73.8 µM (inactive) | 97.1 µM (inactive) | 57.8 µM (inactive) | > 100 µM (inactive) | 71.4 µM (inactive) | 75.2 µM (inactive) | 42.4 µM (inactive) | 36.6 µM (inactive) | 75 µM (inactive) | 55.3 µM (inactive) | > 100 µM (inactive) | 37.1 µM (inactive) | 38.5 µM (inactive) | > 100 µM (inactive) | > 100 µM (inactive)
7 | COC(=O)C1CC(C=[N+](C)C)=C(SC)N1C(=O)OCc1ccccc1 (stereo unspecified) | > 100 µM (inactive) | > 100 µM (inactive) | > 100 µM (inactive) | > 100 µM (inactive) | > 100 µM (inactive) | > 100 µM (inactive) | > 100 µM (inactive) | > 100 µM (inactive) | > 100 µM (inactive) | > 100 µM (inactive) | > 100 µM (inactive) | > 100 µM (inactive) | > 100 µM (inactive) | > 100 µM (inactive) | > 100 µM (inactive) | 30.8 µM (inactive) | > 100 µM (inactive) | > 100 µM (inactive) | > 100 µM (inactive)
8 | C/C1=C/C(C)CC(C)OC(=O)C(C)NC(=O)C(Cc2ccc(O)c(I)c2)N(C)C(=O)C(C)NC(=O)C(C)C1 (stereo unspecified) | 0.0262 µM (active) | 7.23 µM (inactive) | < 0.01 µM (active) | < 0.0166 µM (active) | < 0.01 µM (active) | < 0.01 µM (active) | < 0.01 µM (active) | < 0.01 µM (active) | 0.0667 µM (active) | 0.0314 µM (active) | 0.0127 µM (active) | < 0.01 µM (active) | < 0.01 µM (active) | < 0.01 µM (active) | 0.311 µM (active) | < 0.01 µM (active) | < 0.0133 µM (active) | < 0.01 µM (active) | < 0.0134 µM (active)
9 | COc1cc2c(cc1O)CC[n+]1cc3c(OC)c(OC)ccc3cc1-2 | > 100 µM (inactive) | > 100 µM (inactive) | 35.6 µM (inactive) | > 100 µM (inactive) | > 100 µM (inactive) | 76.7 µM (inactive) | > 100 µM (inactive) | > 100 µM (inactive) | 60.1 µM (inactive) | > 100 µM (inactive) | > 100 µM (inactive) | 75 µM (inactive) | > 100 µM (inactive) | > 100 µM (inactive) | 62.5 µM (inactive) | > 100 µM (inactive) | 51.1 µM (inactive) | > 100 µM (inactive) | 87.7 µM (inactive)
10 | N#Cc1c(Cl)c(C=O)c(=O)n2c1[nH]c1ccccc12 | > 100 µM (inactive) | 28.4 µM (inactive) | 67 µM (inactive) | 38.6 µM (inactive) | 36 µM (inactive) | 47.3 µM (inactive) | 29.8 µM (inactive) | 31.8 µM (inactive) | 63.8 µM (inactive) | 63.1 µM (inactive) | 46.2 µM (inactive) | 56.8 µM (inactive) | > 100 µM (inactive) | > 100 µM (inactive) | 42.1 µM (inactive) | > 100 µM (inactive) | 91.8 µM (inactive) | > 100 µM (inactive) | 24.2 µM (inactive)
11 | CCOC(=O)C(NC(=O)C(CCCCNP(=O)(OCC)OCC)NC(=O)C(C)NC(C)=O)C(C)C (stereo unspecified) | > 100 µM (inactive) | > 100 µM (inactive) | > 100 µM (inactive) | > 100 µM (inactive) | > 100 µM (inactive) | > 100 µM (inactive) | > 100 µM (inactive) | > 100 µM (inactive) | > 100 µM (inactive) | > 100 µM (inactive) | > 100 µM (inactive) | > 100 µM (inactive) | > 100 µM (inactive) | > 100 µM (inactive) | > 100 µM (inactive) | > 100 µM (inactive) | > 100 µM (inactive) | > 100 µM (inactive) | > 100 µM (inactive)
12 | [N-]=[N+]=NCC1OC(n2cnc3c(N)ncnc32)C2OC12 (stereo unspecified) | > 100 µM (inactive) | > 100 µM (inactive) | > 100 µM (inactive) | > 100 µM (inactive) | > 100 µM (inactive) | > 100 µM (inactive) | > 100 µM (inactive) | > 100 µM (inactive) | > 100 µM (inactive) | > 100 µM (inactive) | > 100 µM (inactive) | > 100 µM (inactive) | > 100 µM (inactive) | > 100 µM (inactive) | > 100 µM (inactive) | > 100 µM (inactive) | > 100 µM (inactive) | > 100 µM (inactive) | > 100 µM (inactive)
13 | O=C1NC(=O)/C(=C/c2ccc(S(=O)(=O)N/N=C/c3ccc(Cl)cc3)cc2)N1 | > 100 µM (inactive) | > 100 µM (inactive) | > 100 µM (inactive) | > 100 µM (inactive) | > 100 µM (inactive) | > 100 µM (inactive) | > 100 µM (inactive) | > 100 µM (inactive) | > 100 µM (inactive) | > 100 µM (inactive) | > 100 µM (inactive) | > 100 µM (inactive) | > 100 µM (inactive) | > 100 µM (inactive) | > 100 µM (inactive) | > 100 µM (inactive) | > 100 µM (inactive) | 92.9 µM (inactive) | 78.5 µM (inactive)
14 | CC1=[N+](C)CCCN1C | > 100 µM (inactive) | > 100 µM (inactive) | > 100 µM (inactive) | > 100 µM (inactive) | > 100 µM (inactive) | > 100 µM (inactive) | > 100 µM (inactive) | > 100 µM (inactive) | > 100 µM (inactive) | > 100 µM (inactive) | > 100 µM (inactive) | > 100 µM (inactive) | > 100 µM (inactive) | > 100 µM (inactive) | > 100 µM (inactive) | > 100 µM (inactive) | > 100 µM (inactive) | > 100 µM (inactive) | > 100 µM (inactive)
